In brackets after ≈: the same amount, converted by molar mass.

Assay [1] relates to Staphylococcus aureus ATCC 29213 (MSSA). In words: minimum inhibitory concentration; extreme values may be limits of the assay. A digest of the protocol:
(§1)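 The minimum inhibitory concentration was defined as the lowest concentration whose well remained blue rather than becoming pink. It was measured against methicillin-susceptible and methicillin-resistant Staphylococcus aureus by broth microdilution in 96-well plates according to CLSI guidance, with compounds at 0 to 100 µM incubated for 24 h at 37°C before 30 µl of 0.015% resazurin was added for 2–4 h. Each plate included positive controls.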

In assay [2] the test system is Staphylococcus aureus ATCC 700699 (MRSA). The description is as above. A digest of the protocol: as §1

For the compound `Cc1cccc(Cn2ccc(NC(=O)c3ccc4c(c3)OCO4)n2)c1`, the minimum inhibitory concentration in assay [1] and in assay [2] was above 50 µM each time.

For the compound `CC(=O)OCC1OC([S-])C(OC(C)=O)C(OC(C)=O)C1OC(C)=O.CCP(CC)CC.[Au+]` (stereo unspecified), the minimum inhibitory concentration was found to be 0.39 µM in assay [1] and 0.78 µM in assay [2].

Turning to `CCCCc1ccc(NC(=O)Nc2ccc(O[C@H]3CCCC[C@@H]3N(C)c3ccccc3)c(F)c2)cc1`, the minimum inhibitory concentration in assay [1] and in assay [2] was above 50 µM in each case.

As to `Nc1nccc2ccc(Oc3ccncc3)cc12`, the minimum inhibitory concentration in assay [1] and in assay [2] was 50 µM (≈ 11.9 µg/mL) in each case.

For the compound `O=C(c1ccc(F)cc1)N(CCNc1ccccc1)c1ccccc1`, the minimum inhibitory concentration in assay [1] and in assay [2] was above 50 µM throughout.

As for `Cc1noc(C)c1COc1cccc(C(=O)N=c2[nH]cccc2C)c1`, the minimum inhibitory concentration in assay [1] and in assay [2] was above 50 µM throughout.

As for `FC(F)(F)c1cc(NCCc2ccccc2)nc(-c2ccccn2)n1`, the minimum inhibitory concentration in assay [1] and in assay [2] was above 50 µM throughout.

Consider `CN1CCN(c2cc(-c3ccc(F)cc3)nc(-c3ccncc3)n2)CC1`, for which the minimum inhibitory concentration in assay [1] and in assay [2] was above 50 µM in each case.

As to `Cc1cc(NCC(C)C)c2[nH]nc(-c3ccccc3)c2n1`, the minimum inhibitory concentration in assay [1] and in assay [2] was above 50 µM throughout.

With `Cc1ccc(S(=O)(=O)n2cc(-c3ccnc(N)c3)c3cc(Br)cnc32)cc1`, the minimum inhibitory concentration in assay [1] and in assay [2] was above 50 µM throughout.

As to `COc1cc(CN2CCC3(C=Cc4ccccc43)CC2)cc2c1OCO2`, the minimum inhibitory concentration in assay [1] and in assay [2] was above 50 µM each time.

In the case of `O=C(Nc1ccc(F)c(-c2nc3cc(-c4ccccc4)cnc3[nH]2)c1)N1CCCC1`, the minimum inhibitory concentration in assay [1] and in assay [2] was above 50 µM in each case.

For `Cc1ccc(NC(=O)c2cc(S(=O)(=O)NC(C)(C)C)ccc2C)nc1`, the minimum inhibitory concentration in assay [1] and in assay [2] was above 50 µM each time.

On to `Cc1nc(-c2ccccn2)nc(N(C)CCc2ccccc2)c1Cl`, for which the minimum inhibitory concentration in assay [1] and in assay [2] was 50 µM (≈ 16.9 µg/mL) each time.

Turning to `CC(C)n1nc(-c2cc3c(Cl)cccc3[nH]2)c2c(N)ncnc21`, the minimum inhibitory concentration in assay [1] and in assay [2] was above 50 µM in each case.

As for `FC(F)(F)c1cccc(-c2nc3c(NCc4ccncc4)nccc3[nH]2)c1`, the minimum inhibitory concentration in assay [1] and in assay [2] was above 50 µM in each case.

Regarding `CO/N=C(\C(=O)OC)c1ccccc1CO/N=C(\C)c1cccc(C(F)(F)F)c1`, the minimum inhibitory concentration in assay [1] and in assay [2] was above 50 µM in each case.

In the case of `Nc1nccc2ccc(-c3ccc4nccn4c3)cc12`, the minimum inhibitory concentration in assay [1] and in assay [2] was above 50 µM in each case.

On to `Cc1nn(C)cc1C(C)Nc1nncc(-c2ccc(C(F)(F)F)cc2)n1` (stereo unspecified), for which the minimum inhibitory concentration in assay [1] and in assay [2] was above 50 µM each time.

For the compound `CCOC(=O)NC(=O)c1ccsc1NC(=O)c1nc2ccccc2s1`, the minimum inhibitory concentration in assay [1] and in assay [2] was above 50 µM in each case.

Turning to `COc1ccc(S(=O)(=O)Nc2ccc(CN3CCN(C(=O)c4cccc(C#N)c4)CC3)cc2)cc1`, the minimum inhibitory concentration in assay [1] and in assay [2] was above 50 µM each time.

As for `O=C(c1ccco1)N(CCCn1ccnc1)c1nc2c(Cl)cccc2s1`, the minimum inhibitory concentration in assay [1] and in assay [2] was above 50 µM throughout.

Regarding `Cc1cc2nc(NC(=O)C(C)(C)C)nc(Cl)c2n1Cc1ccc(Cl)cc1`, the minimum inhibitory concentration in assay [1] and in assay [2] was above 50 µM each time.

On to `CCC(Sc1nc2ccccc2o1)C(=O)Nc1nnc(C)s1` (stereo unspecified), for which the minimum inhibitory concentration in assay [1] and in assay [2] was 50 µM (≈ 16.7 µg/mL) in each case.

For the compound `COc1cccn2c(C(=O)N3CCCCC3)c(C(F)(F)F)nc12`, the minimum inhibitory concentration in assay [1] and in assay [2] was above 50 µM in each case.

With `CNC(=O)c1nn(C)c2c1C(C)(C)Cc1cnc(Nc3ccc(N4CCN(C)CC4)cc3)nc1-2`, the minimum inhibitory concentration in assay [1] and in assay [2] was above 50 µM throughout.

Turning to `COc1ccc(OC)c(NCc2ccc3nc(N)nc(N)c3c2Cl)c1`, the minimum inhibitory concentration in assay [1] and in assay [2] was 50 µM (≈ 18 µg/mL) throughout.

`COc1ccc(-c2cncc3ccc(C(=O)NCCCn4ccnc4)nc23)cc1`: the minimum inhibitory concentration in assay [1] and in assay [2] was above 50 µM each time.

Consider `COc1ccc(Cl)cc1NC(=O)CN(C)C(=O)c1cnn(-c2ccccc2)n1`, for which the minimum inhibitory concentration in assay [1] and in assay [2] was above 50 µM throughout.

As for `COc1nc2ccc(Br)cc2cc1[C@@H](c1ccccc1)[C@@](O)(CCN(C)C)c1cccc2ccccc12`, the minimum inhibitory concentration in assay [1] and in assay [2] was above 50 µM each time.

Consider `C[C@]1(O)C[C@@H](c2nc(-c3ccc4ccc(-c5ccccc5)nc4c3)c3c(N)nccn32)C1`, for which the minimum inhibitory concentration in assay [1] and in assay [2] was above 50 µM in each case.

Turning to `CNCCC(Oc1ccc(C(F)(F)F)cc1)c1ccccc1` (stereo unspecified), the minimum inhibitory concentration in assay [1] and in assay [2] was above 50 µM each time.

As for `Cc1ccc(C(=O)Nc2ccc(S(=O)(=O)O)c3cc(S(=O)(=O)O)cc(S(=O)(=O)O)c23)cc1NC(=O)c1cccc(NC(=O)Nc2cccc(C(=O)Nc3cc(C(=O)Nc4ccc(S(=O)(=O)O)c5cc(S(=O)(=O)O)cc(S(=O)(=O)O)c45)ccc3C)c2)c1`, the minimum inhibitory concentration in assay [1] and in assay [2] was above 50 µM in each case.

As to `COC(=O)c1c(NC(=O)c2cc3ccccc3oc2=O)sc2c1CCN(Cc1ccccc1)C2`, the minimum inhibitory concentration in assay [1] and in assay [2] was above 50 µM throughout.

`CC(Oc1ccccc1)C(=O)Nc1nc(-c2ccccn2)cs1` (stereo unspecified): the minimum inhibitory concentration in assay [1] and in assay [2] was 50 µM (≈ 16.3 µg/mL) each time.

For `Cc1nc2ccccn2c1C(=O)NCc1ccc(Cl)cc1`, the minimum inhibitory concentration in assay [1] and in assay [2] was above 50 µM each time.

As for `Brc1cncc(-c2cc(NCCCn3ccnc3)nc(-c3ccccc3)n2)c1`, the minimum inhibitory concentration in assay [1] and in assay [2] was above 50 µM throughout.

In the case of `CC(C)NCC(=O)Nc1cccc(C(=O)Nc2cccc(C(F)(F)F)c2)c1`, the minimum inhibitory concentration in assay [1] and in assay [2] was above 50 µM each time.

In the case of `CCc1nn(C)c(C(=O)NCc2ccc(Oc3ccc(C)cc3)cc2)c1Cl`, the minimum inhibitory concentration in assay [1] and in assay [2] was above 50 µM each time.

Regarding `Cc1cc(C)nc(-n2nc(C)cc2Nc2ccccc2)n1`, the minimum inhibitory concentration in assay [1] and in assay [2] was above 50 µM throughout.

Turning to `CCOc1ccc2cc(-c3nn(CC4CCN(C)CC4)c4ncnc(N)c34)ccc2c1`, the minimum inhibitory concentration in assay [1] and in assay [2] was above 50 µM each time.

`Cc1ncc(-c2ccnc(Nc3ccc(S(C)(=O)=O)cc3)n2)n1C(C)C`: the minimum inhibitory concentration in assay [1] and in assay [2] was above 50 µM in each case.

Regarding `COc1cc(OC)cc(C(=O)NCC2Cc3cc(Cl)cc(-c4ccncc4)c3O2)c1` (stereo unspecified), the minimum inhibitory concentration in assay [1] and in assay [2] was above 50 µM throughout.

For the compound `CS(=O)(=O)N1CCC(Cn2nc(Cc3cccc4ccccc34)c3c(N)ncnc32)CC1`, the minimum inhibitory concentration in assay [1] and in assay [2] was above 50 µM in each case.

For `NCC(=O)N1CCn2c(nc(-c3ccccc3)c2Nc2ccc3c(c2)OCO3)C1`, the minimum inhibitory concentration in assay [1] and in assay [2] was above 50 µM each time.

Take `Cc1cccc(C(=O)Nc2ccnc(N(C)C3CCN(CC(C)C)CC3)c2)c1`: the minimum inhibitory concentration in assay [1] and in assay [2] was above 50 µM throughout.

With `CCCc1ccc(S(=O)(=O)Nc2ccc(CN3CCN(CC4CC4)CC3)cc2)cc1`, the minimum inhibitory concentration in assay [1] and in assay [2] was above 50 µM in each case.

As to `CCCn1c(NC(=O)c2ccc3ccccc3n2)nc2ccccc21`, the minimum inhibitory concentration in assay [1] and in assay [2] was above 50 µM throughout.

For the compound `CCNC(=O)C(C)Nc1nc(-c2cccnc2)nc2sc(C)c(C)c12` (stereo unspecified), the minimum inhibitory concentration in assay [1] and in assay [2] was above 50 µM in each case.

As for `O=C(NC1CC1)c1ccc(CSCc2ccccc2Cl)o1`, the minimum inhibitory concentration in assay [1] and in assay [2] was above 50 µM throughout.

For `Cc1cc(Nc2ccc(C(F)(F)F)cc2)n2ccnc2n1`, the minimum inhibitory concentration in assay [1] and in assay [2] was above 50 µM each time.

Turning to `O=C(Nc1ccccc1)c1ccc(-c2cc3ccncc3cc2OC2CCNCC2)s1`, the minimum inhibitory concentration in assay [1] and in assay [2] was 50 µM (≈ 21.5 µg/mL) each time.

As for `O=C(N[C@H](Cc1ccccc1)C(=O)Nc1ccccc1N1CCOCC1)c1cccs1`, the minimum inhibitory concentration in assay [1] and in assay [2] was above 50 µM in each case.

For the compound `O=C(CN1CCOCC1)Nc1ccc2ncnc(Nc3ccc(OCc4cccc(F)c4)c(Cl)c3)c2c1`, the minimum inhibitory concentration in assay [1] and in assay [2] was above 50 µM throughout.

As for `N#Cc1ccc(-c2cnc(N)c(-c3ccc(C(N)=O)cc3)n2)cc1`, the minimum inhibitory concentration in assay [1] and in assay [2] was above 50 µM in each case.

In the case of `COc1ccc(OC(C)C(=O)Nc2ccc(Cl)cc2C)cc1` (stereo unspecified), the minimum inhibitory concentration in assay [1] and in assay [2] was above 50 µM throughout.

As for `COc1cccc(-c2nc3c(N4CCCC4)cccc3n2CC2CCCN2)n1` (stereo unspecified), the figures for the minimum inhibitory concentration in assay [1] and in assay [2] were 25 µM (≈ 9.44 µg/mL) and 50 µM (≈ 18.9 µg/mL), respectively.

As for `c1cc(C2=NCCN2)cc(-c2cc(-c3ccc(C4=NCCN4)cc3)no2)c1`, the minimum inhibitory concentration in assay [1] and in assay [2] was above 50 µM throughout.

Values taken from the supplement of paper PMC6206229.
